Laboratory results taken from ChEMBL document CHEMBL3621138, “Aminothiazoles: Hit to lead development to identify antileishmanial agents” (Eur J Med Chem, 2015).

Tests used:
[1] = Metabolic stability in golden Syrian hamster liver microsomes assessed as drug metabolism at 0.5 uM incubated for 30 mins in presence of NADPH; format: ADME, Mesocricetus auratus; details: read-out: Drug metabolism
[2] = Metabolic stability in CD1 mouse liver microsomes assessed as drug metabolism at 0.5 uM incubated for 30 mins in presence of NADPH; format: ADME; details: read-out: Drug metabolism
[3] = Cmax in Swiss Albino mouse at 50 mg/kg, po by LC-MS/MS method; format: ADME, organism-based; set-up: dose 50 mg/kg, route oral; details: in vivo
[4] = Tmax in Swiss Albino mouse at 50 mg/kg, po by LC-MS/MS method; format: ADME, organism-based; details: in vivo
[5] = AUClast in Swiss Albino mouse at 50 mg/kg, po by LC-MS/MS method; format: ADME, organism-based; set-up: dose 50 mg/kg, time 0 - last, route oral; details: in vivo
[6] = Tmax in Swiss Albino mouse at 25 mg/kg, po by LC-MS/MS method; format: ADME, organism-based; details: in vivo
[7] = Cmax in Swiss Albino mouse at 1 mg/kg, iv by LC-MS/MS method; format: ADME, organism-based; set-up: dose 1 mg/kg, route intravenous; details: in vivo
[8] = Cmax in Swiss Albino mouse at 25 mg/kg, po by LC-MS/MS method; format: ADME, organism-based; set-up: dose 25 mg/kg, route oral; details: in vivo
[9] = AUClast in Swiss Albino mouse at 1 mg/kg, iv by LC-MS/MS method; format: ADME, organism-based; set-up: dose 1 mg/kg, route intravenous, time 0 - last; details: in vivo
[10] = AUClast in Swiss Albino mouse at 25 mg/kg, po by LC-MS/MS method; format: ADME, organism-based; set-up: dose 25 mg/kg, route oral, time 0 - last; details: in vivo
[11] = AUC (infinity) in Swiss Albino mouse at 25 mg/kg, po by LC-MS/MS method; format: ADME, organism-based; set-up: dose 25 mg/kg, time infinity, route oral; details: in vivo
[12] = AUC (infinity) in Swiss Albino mouse at 1 mg/kg, iv by LC-MS/MS method; format: ADME, organism-based; set-up: dose 1 mg/kg, time infinity, route intravenous; details: in vivo
[13] = Terminal half-life in Swiss Albino mouse at 1 mg/kg, iv by LC-MS/MS method; format: ADME, organism-based; details: in vivo, read-out: beta t1/2 (converted)
[14] = Clearance in Swiss Albino mouse at 1 mg/kg, iv by LC-MS/MS method; format: ADME, organism-based; details: in vivo, read-out: CLH
[15] = Volume of distribution at steady state in Swiss Albino mouse at 1 mg/kg, iv by LC-MS/MS method; format: ADME, organism-based; details: in vivo, read-out: Vdss
[16] = Oral bioavailability in Swiss Albino mouse at 1 mg/kg by LC-MS/MS method; format: ADME, organism-based; details: in vivo

| Structure (SMILES) | metabolised at 0.5 h, 0.5 µM [1] [%] | metabolised at 0.5 h, 0.5 µM [2] [%] | also measured |
| --- | --- | --- | --- |
| FC(F)(F)c1ccc(-c2nc(Nc3ccc(Cl)cn3)sc2Cl)nc1 | 63 | 30 |  |
| Clc1ccc(Nc2nc(-c3cccnn3)cs2)nc1 | 99 | 95 |  |
| Clc1ccc(Nc2nc(-c3cnccn3)cs2)nc1 | 99 | 99 |  |
| Cc1cccnc1Nc1nc(-c2ccccn2)cs1 | 100 | 100 |  |
| COc1ccc(Nc2nc(-c3ccccn3)cs2)cc1OC | 100 | 100 |  |
| CCOc1ccc(-c2nc(Nc3ccc(Cl)cn3)sc2Cl)nc1 | 87 | 56 |  |
| Cc1ccc(Nc2nc(-c3ccccn3)cs2)cc1 | 100 | 100 | Cmax [3]: 108 ng/mL; Tmax [4]: 15 min; AUC(0-t) [5]: 99.8 ng·h/mL |
| Cc1ccc(Nc2nc(-c3ccccn3)cs2)cc1C | 100 | 100 |  |
| Clc1ccc(Nc2nc(-c3cccnn3)c(Cl)s2)nc1 | 99 | 70 |  |
| COc1ccc(Nc2nc(-c3ccccn3)cs2)cc1 | 100 | 100 |  |
| COc1ccc(Nc2nc(-c3ncccn3)cs2)cc1 | 81 | 99 |  |
| COc1ccc(Nc2nc(-c3cccnc3)cs2)cc1 | 96 | 96 |  |
| COc1ccc(-c2nc(Nc3ccc(Cl)cn3)sc2Cl)nc1 | 100 | 92 |  |
| COc1ccnc(-c2nc(Nc3ccc(Cl)cn3)sc2Cl)c1 | 100 | 90 |  |
| Clc1ccc(Nc2nc(-c3ncccn3)c(Cl)s2)nc1 | 99 | 71 |  |
| Cc1ccnc(Nc2nc(-c3ccccn3)cs2)c1 | 99 | 99 |  |
| Clc1ccc(Nc2nc(-c3cnccn3)c(Cl)s2)nc1 | 78 | 47 |  |

| Structure (SMILES) | metabolised at 0.5 h, 0.5 µM [1] [%] | metabolised at 0.5 h, 0.5 µM [2] [%] | also measured |
| --- | --- | --- | --- |
| Clc1ccc(Nc2nc(-c3ccccn3)cs2)nc1 | 100 | 100 |  |
| c1ccc(Nc2nc(-c3ccccn3)cs2)nc1 | 100 | 100 |  |
| Cc1cccc(Nc2nc(-c3ccccn3)cs2)n1 | 100 | 100 |  |
| CN(C)c1ccc(Nc2nc(-c3ccccn3)cs2)cc1 | 99 | 98 |  |
| c1ccc(-c2csc(Nc3ccc4c(c3)OCCO4)n2)nc1 | 100 | 99 |  |
| CCOc1ccc(-c2csc(Nc3ccc(Cl)cn3)n2)nc1 | 10 | 62 | Tmax [6]: 15 min; Cmax [7]: 885 ng/mL; Cmax [8]: 167 ng/mL; AUC(0-t) [9]: 178 ng·h/mL; AUC(0-t) [10]: 362 ng·h/mL; AUC(0-inf) [11]: 377 ng·h/mL; AUC(0-inf) [12]: 183 ng·h/mL; half-life [13]: 28.8 min; clearance [14]: 91 mL/min/kg; Vd [15]: 1.99 L/kg; bioavailability [16]: 8% |
| COc1ccc(Nc2nc(-c3ccccn3)cs2)nc1 | 99 | 100 |  |
| COc1ccc(Nc2nc(-c3ccncc3)cs2)cc1 | 98 | 83 |  |
| Cc1ccc(Nc2nc(-c3ccccn3)cs2)nc1 | 100 | 100 |  |
| COc1cccc(-c2csc(Nc3ccc(Cl)cn3)n2)n1 | 100 | 75 |  |
| Clc1ccc(Nc2nc(-c3ccccn3)c(Cl)s2)nc1 | 100 | 93 |  |
| COc1ccnc(-c2csc(Nc3ccc(Cl)cn3)n2)c1 | 100 | 97 |  |
| COc1ccc(-c2csc(Nc3ccc(Cl)cn3)n2)nc1 | 100 | 97 |  |
| Clc1ccc(Nc2nc(-n3cccn3)cs2)nc1 | 100 | 100 |  |
| FC(F)(F)c1ccc(-c2csc(Nc3ccc(Cl)cn3)n2)nc1 | 98 | 63 |  |
| Clc1ccc(Nc2nc(-c3ncccn3)cs2)nc1 | 100 | 99 |  |
